Laboratory results taken from patent US20200031848A1, “AR-V7 INHIBITORS” (Hoffmann-La Roche Inc., priority 2016, published 2020).

Legend:
in vitro = conditions: for microsomal CLint at 2 μM: pH 7.4
Method: Microsomal incubations were carried out in 96-well plates in 5 aliquots of 40 μL each (one for each time point). […] Control incubations were performed replacing the NADPH-cofactor system with PBS. […] Incubations were performed in duplicates. Five time points over 40 minutes had been analyzed. The reactions were stopped by adding 12 volumes of 90% acetonitrile-water to incubation aliquots, followed by protein sedimentation by centrifuging at 5500 rpm for 5 minutes. Supernatants were analyzed using the HPLC system coupled with tandem mass spectrometer. The elimination constant (kel), half-life (t1/2) and intrinsic clearance (Clint) were determined in plot of […] versus time, using linear regression analysis: […]

[1] = molecular target: T1, AR transcriptional activity (Homo sapiens, UniProt P10275, T878A); test: eGFP cellular AR transcription assay; type: cell-based; conditions: for inhibition at 1 µM: read-out: eGFP % inhib. at 1 μM
T1 construct: The LNCaP eGFP cell line was stably transfected with an androgen-responsive probasin-derived promoter fused to an eGFP reporter; endogenous in cells; host or cells: LNCaP eGFP (LN-ARR2PB-eGFP) human prostate cancer cells
T1 sequence (P10275 1-920 T878A): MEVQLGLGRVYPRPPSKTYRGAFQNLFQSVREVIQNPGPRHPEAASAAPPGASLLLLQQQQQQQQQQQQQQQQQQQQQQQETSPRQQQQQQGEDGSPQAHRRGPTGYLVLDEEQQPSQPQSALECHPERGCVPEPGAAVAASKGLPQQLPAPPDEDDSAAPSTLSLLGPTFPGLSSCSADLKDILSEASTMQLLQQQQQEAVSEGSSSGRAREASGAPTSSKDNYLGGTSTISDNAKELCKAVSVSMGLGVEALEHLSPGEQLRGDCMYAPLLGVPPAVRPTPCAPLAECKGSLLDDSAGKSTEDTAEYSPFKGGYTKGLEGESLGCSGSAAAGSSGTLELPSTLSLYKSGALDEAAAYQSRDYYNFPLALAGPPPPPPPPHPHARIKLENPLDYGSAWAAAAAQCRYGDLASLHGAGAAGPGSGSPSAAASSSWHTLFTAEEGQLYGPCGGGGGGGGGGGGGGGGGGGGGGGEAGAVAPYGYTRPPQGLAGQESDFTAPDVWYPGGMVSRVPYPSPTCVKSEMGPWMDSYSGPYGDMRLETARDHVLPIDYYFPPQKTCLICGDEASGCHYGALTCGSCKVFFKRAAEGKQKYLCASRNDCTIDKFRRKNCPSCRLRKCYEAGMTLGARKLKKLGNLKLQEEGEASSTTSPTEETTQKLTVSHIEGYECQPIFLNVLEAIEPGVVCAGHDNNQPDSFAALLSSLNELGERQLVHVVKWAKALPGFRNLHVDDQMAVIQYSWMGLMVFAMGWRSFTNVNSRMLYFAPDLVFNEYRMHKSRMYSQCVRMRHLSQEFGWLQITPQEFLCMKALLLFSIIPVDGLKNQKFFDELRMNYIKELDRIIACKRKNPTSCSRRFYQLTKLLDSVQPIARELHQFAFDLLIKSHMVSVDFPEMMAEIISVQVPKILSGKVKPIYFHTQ
Text: The DNA-binding domain is an attractive target for inhibition of AR dimerization and/or DNA binding. In silico computational drug discovery methods were used to conduct a virtual screen of >3 million purchasable lead-like compounds from the ZINC database (Irwin, J. et al.^11) to identify potential DBD binders. The in silico methods included large-scale docking, in-site rescoring and consensus voting procedures. It will be understood by a person of skill that COOH and NR2 may include the corresponding ions, for example carboxylate ions and ammonium ions, respectively. Alternatively, where the ions are shown, a person of skill in the art will appreciate that the counter ion may also be present. Furthermore, it will be appreciated by a person of skill that other moieties may include the corresponding ions, and where the ions are shown, a person of skill in the art will appreciate that the counter ion may also be present. […] Where the % inhibition, eGFP IC50 or the PSA IC50 has no value given, this may be because no measurement was taken or the value was not calculated, in the case of the % inhibition. In vitro identification of AR inhibitors targeting AR DBD The selected compounds were assessed with a non-destructive eGFP assay that quantifies levels of AR transcriptional activity, were identified (table below).
(§1) 1. Cell Culture: LNCaP and PC3 human prostate cancer cells were obtained from American Type Culture Collection (ATCC, Manassas, Va.) and grown in RPMI 1640 medium supplemented with 5% fetal bovine serum (FBS) (Invitrogen). The LNCaP eGFP cell line was stably transfected with an androgen-responsive probasin-derived promoter fused to an eGFP reporter (LN-ARR2PB-eGFP) using a lentiviral approach, and were grown in phenol-red-free RPMI 1640 supplemented with 5% CSS. In-house developed MDV3100-resistant LNCaP cells were cultured in RPMI 1640 supplemented with 5% FBS and 10 μM MDV3100. All cells were maintained at 37° C. in 5% CO2.
2. eGFP cellular AR transcription assay: The AR transcriptional activity was assayed as previously described (Tavassoli, P., et al.^12).

[2] = system: PSA levels secreted into the media; test: Prostate-specific antigen (PSA) assay; type: cell-based; conditions: Homo sapiens, 72 h; in parallel to the eGFP assay, same plates, 3 days
Method: as §1
3. Prostate-specific antigen (PSA) assay: The evaluation of PSA levels secreted into the media was performed in parallel to the eGFP assay using the same plates. After cells were incubated for 3 days, 150 μl of the media was taken from each well, and added to 150 μl of PBS. PSA levels were then evaluated using Cobas e 411 analyzer instrument (Roche Diagnostics) according to the manufacturer's instructions.

SMILES	microsomal CLint at 2 μM (in vitro; human, microsomes) [µL/min/mg]	IC50 ([1]; LNCaP eGFP cell line) [nM]	IC50 [2] [nM]	also measured
OCc1c(Br)ncn1-c1csc(N2CCOCC2)n1 [Example 61, [5-bromo-3-(2-morpholinothiazol-4-yl)imidazol-4-yl]methanol]	15	–	–	metabolic stability in human hepatic microsomal test system (in words) (in vitro; human, microsomes): high metabolic stability; inhibition at 1 µM [1]: 31%
N#Cc1cn(-c2csc(N3CCOCC3)n2)cn1 [Example 58, 1-(2-morpholinothiazol-4-yl)imidazole-4-carbonitrile]	23	–	–	inhibition at 1 µM [1]: 2%
Brc1ncn(-c2csc(N3C[C@H]4CC[C@@H](C3)O4)n2)c1Br [Example 3, (1R,5S)-3-[4-(4,5-dibromoimidazol-1-yl)thiazol-2-yl]-8-oxa-3-azabicyclo[3.2.1]octane]	–	182	1060	–
Clc1ncn(-c2csc(N3[C@@H]4CCC[C@H]3COC4)n2)c1Br [Example 5, (1R,5S)-9-[4-(5-bromo-4-chloro-imidazol-1-yl)thiazol-2-yl]-3-oxa-9-azabicyclo[3.3.1]nonane]	–	268	181	–
Clc1c(Br)ncn1-c1csc(N2C[C@H]3CC[C@@H](C2)O3)n1 [Example 24, (1R,5S)-3-[4-(4-bromo-5-chloro-imidazol-1-yl)thiazol-2-yl]-8-oxa-3-azabicyclo[3.2.1]octane]	13	700	–	metabolic stability in human hepatic microsomal test system (in words) (in vitro; human, microsomes): high metabolic stability
Brc1ncn(-c2csc(N3[C@@H]4CCC[C@H]3COC4)n2)c1Br [Example 4, (1S,5R)-9-[4-(4,5-dibromoimidazol-1-yl)thiazol-2-yl]-3-oxa-9-azabicyclo[3.3.1]nonane]	–	196	6	–
OCc1ncn(-c2csc(N3CCOCC3)n2)c1Br [Example 62, [5-bromo-1-(2-morpholinothiazol-4-yl)imidazol-4-yl]methanol]	19	–	–	eGFP IC50 ([1]; LNCaP eGFP cell line): inact.
FC(F)(F)C1CN(c2nc(-n3cc(Br)nc3Br)cs2)CCO1 (stereo not shown) [Example 38, 4-[4-(2,4-dibromoimidazol-1-yl)thiazol-2-yl]-2-(trifluoromethyl)morpholine]	44	1950	–	–
Brc1cn(-c2csc(N3[C@@H]4CC[C@H]3COC4)n2)c(Br)n1 [Example 10, (1R,5S)-8-[4-(2,4-dibromoimidazol-1-yl)thiazol-2-yl]-3-oxa-8-azabicyclo[3.2.1]octane]	–	934	817	–
c1cn(-c2csc(N3CCOCC3)n2)cn1 [Example 55, 4-(4-imidazol-1-ylthiazol-2-yl)morpholine]	10	–	–	metabolic stability in human hepatic microsomal test system (in words) (in vitro; human, microsomes): high metabolic stability; inhibition at 1 µM [1]: 17%
Brc1cn(-c2csc(N3[C@@H]4CCC[C@H]3COC4)n2)c(Br)n1 [Example 2, (1S,5R)-9-[4-(2,4-dibromoimidazol-1-yl)thiazol-2-yl]-3-oxa-9-azabicyclo[3.3.1]nonane]	–	135	74	–
CCOC(=O)c1nc(Br)c(Br)n1-c1csc(N2CCOCC2)n1 [Example 56, ethyl 4,5-dibromo-1-(2-morpholinothiazol-4-yl)imidazole-2-carboxylate]	33	–	–	inhibition at 1 µM [1]: 12%
OCc1nc(Br)c(Br)n1-c1csc(N2[C@@H]3CC[C@H]2COC3)n1 [Example 36, [4,5-dibromo-1-[2-[(1R,5S)-3-oxa-8-azabicyclo[3.2.1]octan-8-yl]thiazol-4-yl]imidazol-2-yl]methanol]	10	2990	–	metabolic stability in human hepatic microsomal test system (in words) (in vitro; human, microsomes): high metabolic stability
Clc1ncn(-c2csc(N3C[C@H]4CC[C@@H](C3)O4)n2)c1Br [Example 21, (1R,5S)-3-[4-(5-bromo-4-chloro-imidazol-1-yl)thiazol-2-yl]-8-oxa-3-azabicyclo[3.2.1]octane]	6	300	–	metabolic stability in human hepatic microsomal test system (in words) (in vitro; human, microsomes): high metabolic stability
Brc1ncn(-c2csc(N3[C@@H]4CC[C@H]3COC4)n2)c1Br [Example 7, (1R,5S)-8-[4-(4,5-dibromoimidazol-1-yl)thiazol-2-yl]-3-oxa-8-azabicyclo[3.2.1]octane]	–	458	385	–
CC1CN(c2nc(-n3cc(Br)nc3Br)cs2)CCO1 (stereo not shown) [Example 22, 4-[4-(2,4-dibromoimidazol-1-yl)thiazol-2-yl]-2-methyl-morpholine]	52	400	–	–
Clc1c(Br)ncn1-c1csc(N2[C@@H]3CCC[C@H]2COC3)n1 [Example 9, (1R,5S)-9-[4-(4-bromo-5-chloro-imidazol-1-yl)thiazol-2-yl]-3-oxa-9-azabicyclo[3.3.1]nonane]	–	746	784	–
OCc1nc(Br)c(Br)n1-c1csc(N2CCOCC2)n1 [Example 57, [4,5-dibromo-1-(2-morpholinothiazol-4-yl)imidazol-2-yl]methanol]	10	6450	–	metabolic stability in human hepatic microsomal test system (in words) (in vitro; human, microsomes): high metabolic stability
Clc1ncn(-c2csc(N3C[C@H]4CC[C@@H](C3)O4)n2)c1Cl [Example 20, (1S,5R)-3-[4-(4,5-dichloroimidazol-1-yl)thiazol-2-yl]-8-oxa-3-azabicyclo[3.2.1]octane]	40	250	–	–
Brc1cn(-c2csc(N3CCOC4(CCCC4)C3)n2)c(Br)n1 [Example 18, 9-[4-(2,4-dibromoimidazol-1-yl)thiazol-2-yl]-6-oxa-9-azaspiro[4.5]decane]	100	200	–	"No cofactor" control: role of CYP450 in metabolism (in vitro; NADPH-cofactor system replaced with PBS): not determined just by CYP450 activity; metabolic stability in human hepatic microsomal test system (in words) (in vitro; human hepatic microsomes): low stability
CCC1(CC)CN(c2nc(-n3cc(Br)nc3Br)cs2)CCO1 [Example 37, 4-[4-(2,4-dibromoimidazol-1-yl)thiazol-2-yl]-2,2-diethyl-morpholine]	129	–	–	inhibition at 1 µM [1]: 33%
Brc1cn(-c2csc(N3CCOC4(COC4)C3)n2)c(Br)n1 [Example 39, 8-[4-(2,4-dibromoimidazol-1-yl)thiazol-2-yl]-2,5-dioxa-8-azaspiro[3.5]nonane]	18	–	–	inhibition at 1 µM [1]: 34%
